According to US9580437B2, “Triazolopyrimidine compounds and uses thereof” (Novartis AG, priority 2014, dated 2017):

How the values were obtained:
EED (1-441)-His protein = EED (1-441)-His protein (Homo sapiens (Human), UniProt O75530); assay: EED-H3K27Me3 peptide competition binding assay by AlphaScreen; conditions: read-out: (a) IC50 EED Alphascreen binding Qualified
Text: EED-H3K27Me3 peptide competition binding assay by AlphaScreen (α-screen)

[1] = target: wild type PRC2 (wtPRC2) complex (Homo sapiens (Human), UniProt O75530); assay: EED LC-MS assay; type: biochemical; conditions: read-out: (b) IC50 EED LC-MS Qualified
Chain of wild type PRC2 (wtPRC2) complex (O75530 whole entry): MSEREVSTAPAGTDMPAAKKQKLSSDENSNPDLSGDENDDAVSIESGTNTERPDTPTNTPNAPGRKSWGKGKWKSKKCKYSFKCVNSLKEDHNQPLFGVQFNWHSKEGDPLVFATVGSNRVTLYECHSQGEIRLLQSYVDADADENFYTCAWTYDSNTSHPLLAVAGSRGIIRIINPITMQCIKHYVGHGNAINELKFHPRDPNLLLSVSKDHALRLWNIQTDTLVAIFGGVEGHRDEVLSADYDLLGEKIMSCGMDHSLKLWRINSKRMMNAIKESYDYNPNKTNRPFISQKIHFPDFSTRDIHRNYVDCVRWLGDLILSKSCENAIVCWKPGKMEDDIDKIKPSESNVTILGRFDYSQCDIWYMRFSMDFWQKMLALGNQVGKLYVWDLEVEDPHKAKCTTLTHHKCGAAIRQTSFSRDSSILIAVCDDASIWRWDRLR
Chain of wild type PRC2 (wtPRC2) complex (Q15910 whole entry partner): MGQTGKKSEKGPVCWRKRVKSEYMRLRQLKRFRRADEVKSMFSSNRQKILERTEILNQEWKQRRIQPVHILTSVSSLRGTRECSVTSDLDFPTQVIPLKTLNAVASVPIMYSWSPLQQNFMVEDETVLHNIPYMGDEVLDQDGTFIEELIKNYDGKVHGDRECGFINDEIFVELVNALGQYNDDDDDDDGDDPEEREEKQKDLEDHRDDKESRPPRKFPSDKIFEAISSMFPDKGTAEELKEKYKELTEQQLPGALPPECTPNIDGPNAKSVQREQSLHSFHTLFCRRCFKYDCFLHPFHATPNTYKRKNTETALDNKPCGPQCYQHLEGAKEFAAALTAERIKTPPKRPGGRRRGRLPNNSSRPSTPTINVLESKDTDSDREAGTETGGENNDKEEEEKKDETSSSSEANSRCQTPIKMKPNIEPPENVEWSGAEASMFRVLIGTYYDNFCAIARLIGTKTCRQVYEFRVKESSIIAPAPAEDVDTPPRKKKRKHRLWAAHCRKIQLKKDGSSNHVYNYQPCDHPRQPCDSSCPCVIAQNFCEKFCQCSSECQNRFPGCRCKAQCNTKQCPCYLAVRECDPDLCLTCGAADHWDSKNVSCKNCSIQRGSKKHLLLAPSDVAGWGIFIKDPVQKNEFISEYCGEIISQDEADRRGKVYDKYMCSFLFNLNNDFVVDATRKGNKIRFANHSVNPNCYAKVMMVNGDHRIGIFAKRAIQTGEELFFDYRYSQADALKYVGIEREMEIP
Chain of wild type PRC2 (wtPRC2) complex (Q15022 whole entry partner): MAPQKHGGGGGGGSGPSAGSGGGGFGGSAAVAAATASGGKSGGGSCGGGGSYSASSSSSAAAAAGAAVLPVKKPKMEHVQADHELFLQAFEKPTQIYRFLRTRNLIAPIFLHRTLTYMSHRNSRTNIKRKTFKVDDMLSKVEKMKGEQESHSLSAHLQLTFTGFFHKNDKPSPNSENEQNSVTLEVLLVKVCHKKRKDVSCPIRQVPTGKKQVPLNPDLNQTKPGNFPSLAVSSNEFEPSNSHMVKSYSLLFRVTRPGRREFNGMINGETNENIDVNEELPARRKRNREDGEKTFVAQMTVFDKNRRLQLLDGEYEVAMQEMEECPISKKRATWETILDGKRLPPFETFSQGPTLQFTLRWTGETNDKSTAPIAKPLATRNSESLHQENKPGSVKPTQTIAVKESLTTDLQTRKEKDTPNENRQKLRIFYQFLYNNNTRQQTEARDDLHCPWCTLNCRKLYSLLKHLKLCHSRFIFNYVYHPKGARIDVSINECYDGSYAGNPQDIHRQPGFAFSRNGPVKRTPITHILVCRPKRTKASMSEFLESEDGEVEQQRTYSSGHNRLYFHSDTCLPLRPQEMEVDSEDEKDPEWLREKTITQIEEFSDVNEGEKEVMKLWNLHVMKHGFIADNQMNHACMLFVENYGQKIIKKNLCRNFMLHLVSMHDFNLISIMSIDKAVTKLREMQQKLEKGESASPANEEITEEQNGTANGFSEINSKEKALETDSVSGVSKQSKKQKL
Procedure: A 6 μL solution of 3 μM of the peptide substrate H3K27Me0 (histone H3[21-44]-biotin) in reaction buffer was added to initiate each reaction. […] ELISA (H3K27 Methylation) Assay

Chain of EED (1-441)-His protein (O75530 whole entry): as the sequence (O75530 whole entry) above

| Structure (SMILES) | IC50 (EED (1-441)-His protein) [nM] | IC50 [1] [nM] |
| --- | --- | --- |
| c1ccc(-c2cnc(NCc3cccc4occc34)n3cnnc23)cc1 [Example 217, N-(benzofuran-4-ylmethyl)-8-phenyl-[1,2,4]triazolo[4,3-c]pyrimidin-5-amine] | 363 | 111 |
| c1cncc(-c2cnc(NCc3cccc4occc34)n3cnnc23)c1 [Example 213, N-(benzofuran-4-ylmethyl)-8-(pyridin-3-yl)-[1,2,4]triazolo[4,3-c]pyrimidin-5-amine] | 36.6 | 25.6 |
| CN1CCN(c2ccc(-c3cnc(NCc4cccc5occc45)n4cnnc34)cc2)CC1 [Example 209, N-(benzofuran-4-ylmethyl)-8-(4-(4-methylpiperazin-1-yl)phenyl)-[1,2,4]triazolo[4,3-c]pyrimidin-5-amine] | 36.9 | 29 |
| Cc1nc(OC(C)C)ncc1-c1cnc(NCc2c(F)ccc3c2CCO3)n2cnnc12 [Example 9, N-((5-fluoro-2,3-dihydrobenzofuran-4-yl)methyl)-8-(2-isopropoxy-4-methylpyrimidin-5-yl)-[1,2,4]triazolo[4,3-c]pyrimidin-5-amine] | 4.1 | 7.9 |
| Cn1cc(-c2cnc(NCc3c(F)ccc4c3CCO4)n3cnnc23)cn1 [Example 147, N-((5-fluoro-2,3-dihydrobenzofuran-4-yl)methyl)-8-(1-methyl-1H-pyrazol-4-yl)-[1,2,4]triazolo[4,3-c]pyrimidin-5-amine] | 3.6 | 15.9 |
| CN(C)Cc1ccc(-c2cnc(NCc3cccc4c3CCO4)n3cnnc23)cc1 [Example 11, N-((2,3-dihydrobenzofuran-4-yl)methyl)-8-(4-((dimethylamino)methyl)phenyl)-[1,2,4]triazolo[4,3-c]pyrimidin-5-amine] | 6.9 | 20 |
| Cn1cc(-c2cnc(NCc3c(F)ccc4c3CCO4)n3cnnc23)c(C(F)F)n1 [Example 200, 8-(3-(difluoromethyl)-1-methyl-1H-pyrazol-4-yl)-N-((5-fluoro-2,3-dihydrobenzofuran-4-yl)methyl)-[1,2,4]triazolo[4,3-c]pyrimidin-5-amine] | 7.5 | 9.5 |
| Cc1ncncc1-c1cnc(NCc2c(F)ccc3c2CCO3)n2cnnc12 [Example 176, N-((5-fluoro-2,3-dihydrobenzofuran-4-yl)methyl)-8-(4-methylpyrimidin-5-yl)-[1,2,4]triazolo[4,3-c]pyrimidin-5-amine] | 5.9 | 8.3 |
| Fc1ccc2c(c1CNc1ncc(-c3cncnc3C(F)F)c3nncn13)CCO2 [Example 191, 8-(4-(difluoromethyl)pyrimidin-5-yl)-N-((5-fluoro-2,3-dihydrobenzofuran-4-yl)methyl)-[1,2,4]triazolo[4,3-c]pyrimidin-5-amine] | 3.8 | 13.1 |
| c1cc(CNc2ncc(-c3ccc(C4CC4)nc3)c3nncn23)c2c(c1)OCC2 [Example 65, 8-(6-cyclopropylpyridin-3-yl)-N-((2,3-dihydrobenzofuran-4-yl)methyl)-[1,2,4]triazolo[4,3-c]pyrimidin-5-amine] | 18.3 | 20 |
| OCCOc1ccc(-c2cnc(NCc3cccc4c3CCO4)n3cnnc23)cc1 [Example 38, 2-(4-(5-(((2,3-dihydrobenzofuran-4-yl)methyl)amino)-[1,2,4]triazolo[4,3-c]pyrimidin-8-yl)phenoxy)ethanol] | 24.2 | 34.9 |
| CN(C)S(=O)(=O)c1ccc(-c2cnc(NCc3cccc4c3CCO4)n3cnnc23)cc1 [Example 15, 4-(5-(((2,3-dihydrobenzofuran-4-yl)methyl)amino)-[1,2,4]triazolo[4,3-c]pyrimidin-8-yl)-N,N-dimethylbenzenesulfonamide] | 12.8 | 20.6 |
| CN(C)Cc1ccc(-c2cnc(NCc3cccc4occc34)n3cnnc23)cc1 [Example 208, N-(benzofuran-4-ylmethyl)-8-(4-((dimethylamino)methyl)phenyl)-[1,2,4]triazolo[4,3-c]pyrimidin-5-amine] | 6.2 | 12.7 |
| c1cc(CNc2ncc(-c3ccc(N4CCSCC4)nc3)c3nncn23)c2c(c1)OCC2 [Example 81, N-((2,3-dihydrobenzofuran-4-yl)methyl)-8-(6-thiomorpholinopyridin-3-yl)-[1,2,4]triazolo[4,3-c]pyrimidin-5-amine] | 14.6 | 19.1 |
| COc1ccc(-c2cnc(NCc3c(F)ccc4c3CCO4)n3cnnc23)cn1 [Example 142, N-((5-fluoro-2,3-dihydrobenzofuran-4-yl)methyl)-8-(6-methoxypyridin-3-yl)-[1,2,4]triazolo[4,3-c]pyrimidin-5-amine] | 2.4 | 5.1 |
| Fc1ccc2c(c1CNc1ncc(-c3ccnn3C3CC3)c3nncn13)CCO2 [Example 192, 8-(1-cyclopropyl-1H-pyrazol-5-yl)-N-((5-fluoro-2,3-dihydrobenzofuran-4-yl)methyl)-[1,2,4]triazolo[4,3-c]pyrimidin-5-amine] | 3.5 | 12.6 |

| Structure (SMILES) | IC50 (EED (1-441)-His protein) [nM] | IC50 [1] [nM] |
| --- | --- | --- |
| Cc1ccc(-c2cnc(NCc3cccc4c3CCO4)n3cnnc23)cn1 [Example 52, N-((2,3-dihydrobenzofuran-4-yl)methyl)-8-(6-methylpyridin-3-yl)-[1,2,4]triazolo[4,3-c]pyrimidin-5-amine] | 70.9 | 47 |
| Fc1ccc2c(c1CNc1ncc(-c3cccnc3F)c3nncn13)CCO2 [Example 115, N-((5-fluoro-2,3-dihydrobenzofuran-4-yl)methyl)-8-(2-fluoropyridin-3-yl)-[1,2,4]triazolo[4,3-c]pyrimidin-5-amine] | 4.7 | 6.9 |
| Fc1ccc2c(c1CNc1ncc(F)c3nncn13)CCO2 [Example 235, 8-fluoro-N-((5-fluoro-2,3-dihydrobenzofuran-4-yl)methyl)-[1,2,4]triazolo[4,3-c]pyrimidin-5-amine] | 39.9 | 65.3 |
| O=C1CN(c2ccc(-c3cnc(NCc4cccc5c4CCO5)n4cnnc34)cn2)CCN1 [Example 104, 4-(5-(5-(((2,3-dihydrobenzofuran-4-yl)methyl)amino)-[1,2,4]triazolo[4,3-c]pyrimidin-8-yl)pyridin-2-yl)piperazin-2-one] | 9.6 | 12 |
| c1cc(CNc2ncc(-c3ccncc3)c3nncn23)c2ccoc2c1 [Example 218, N-(benzofuran-4-ylmethyl)-8-(pyridin-4-yl)-[1,2,4]triazolo[4,3-c]pyrimidin-5-amine] | 38.6 | 26.3 |
| Fc1ccc2c(c1CNc1ncc(-n3cncn3)c3nncn13)CCO2 [Example 241, N-((5-fluoro-2,3-dihydrobenzofuran-4-yl)methyl)-8-(1H-1,2,4-triazol-1-yl)-[1,2,4]triazolo[4,3-c]pyrimidin-5-amine] | 11.3 | 30 |
| Fc1ccc2c(c1CNc1ncc(-n3ccnc3)c3nncn13)CCO2 [Example 240, N-((5-fluoro-2,3-dihydrobenzofuran-4-yl)methyl)-8-(1H-imidazol-1-yl)-[1,2,4]triazolo[4,3-c]pyrimidin-5-amine] | 4.9 | 14.3 |
| CC(c1ccc(-c2cnc(NCc3cccc4occc34)n3cnnc23)cc1)N1CCCC1 (stereo not shown) [Example 210, N-(benzofuran-4-ylmethyl)-8-(4-(1-(pyrrolidin-1-yl)ethyl)phenyl)-[1,2,4]triazolo[4,3-c]pyrimidin-5-amine] | 18.5 | 21.4 |
| CC1CCCN1c1ccc(-c2cnc(NCc3cccc4c3CCO4)n3cnnc23)cn1 (stereo not shown) [Example 96, N-((2,3-dihydrobenzofuran-4-yl)methyl)-8-(6-(2-methylpyrrolidin-1-yl)pyridin-3-yl)-[1,2,4]triazolo[4,3-c]pyrimidin-5-amine] | 26 | 13.2 |
| COc1cc(Cl)c(-c2cnc(NCc3c(F)ccc4c3CCO4)n3cnnc23)cn1 [Example 138, 8-(4-chloro-6-methoxypyridin-3-yl)-N-((5-fluoro-2,3-dihydrobenzofuran-4-yl)methyl)-[1,2,4]triazolo[4,3-c]pyrimidin-5-amine] | 1.9 | 8.4 |
| CC(C)n1nccc1-c1cnc(NCc2c(F)ccc3c2CCO3)n2cnnc12 [Example 144, N-((5-fluoro-2,3-dihydrobenzofuran-4-yl)methyl)-8-(1-isopropyl-1H-pyrazol-5-yl)-[1,2,4]triazolo[4,3-c]pyrimidin-5-amine] | 6.3 | 17.8 |
| c1ccc(-c2cnc(NCc3cccc4c3CCO4)n3cnnc23)cc1 [Example 13, N-((2,3-dihydrobenzofuran-4-yl)methyl)-8-phenyl-[1,2,4]triazolo[4,3-c]pyrimidin-5-amine] | 53.6 | 47.7 |
| Cn1cc(-c2cnc(NCc3cccc4c3CCO4)n3cnnc23)cn1 [Example 25, N-((2,3-dihydrobenzofuran-4-yl)methyl)-8-(1-methyl-1H-pyrazol-4-yl)-[1,2,4]triazolo[4,3-c]pyrimidin-5-amine] | 30.7 | 44.9 |
| CC(=O)NCc1ccc(-c2cnc(NCc3c(F)ccc4c3CCO4)n3cnnc23)cn1 [Example 171, N-((5-(5-(((5-fluoro-2,3-dihydrobenzofuran-4-yl)methyl)amino)-[1,2,4]triazolo[4,3-c]pyrimidin-8-yl)pyridin-2-yl)methyl)acetamide] | 6 | 7.3 |
| Cc1cc(C(=O)N(C)C)ncc1-c1cnc(NCc2c(F)ccc3c2CCO3)n2cnnc12 [Example 131, 5-(5-(((5-fluoro-2,3-dihydrobenzofuran-4-yl)methyl)amino)-[1,2,4]triazolo[4,3-c]pyrimidin-8-yl)-N,N,4-trimethylpicolinamide] | 4 | 10.6 |
| FC(F)c1ccc(-c2cnc(NCc3cccc4c3CCO4)n3cnnc23)cn1 [Example 154, 8-(6-(difluoromethyl)pyridin-3-yl)-N-((2,3-dihydrobenzofuran-4-yl)methyl)-[1,2,4]triazolo[4,3-c]pyrimidin-5-amine] | 20.1 | 36.9 |
